Where a name gives a salt, the structure may show the parent alone.

The assay has as its target T1, hiNOS (Homo sapiens, UniProt P35228).
T1 construct: expressed in transfected cells; host or cells: HEK293
As to the kind of experiment: DAN assay, hiNOS expressed in transiently transfected HEK293 cells. It counts as cell-based. Conditions: HEK293 cells transiently transfected with hiNOS. The source says:
The source of nitric oxide synthase (NOS) enzyme can be generated in several ways including induction of endogenous iNOS using cytokines and/or lipopolysaccharide (LPS) in various cell types known in the art. Alternatively, the gene encoding the enzyme can be cloned and the enzyme can be generated in cells via heterologous expression from a transient or stable expression plasmid with suitable features for protein expression as are known in the art. Enzymatic activity (nitric oxide production) is calcium independent for iNOS, while the constitutive NOS isoforms, nNOS and eNOS, become active with the addition of various cofactors added to cellular media or extract as are well known in the art. Enzymes specified in Table 1 were expressed in HEK293 cells transiently transfected with the indicated NOS isoform.
A major metabolic pathway for nitric oxide is to nitrate and nitrite, which are stable metabolites within tissue culture, tissue, plasma, and urine (S Moncada, A Higgs, N Eng J Med 329, 2002 (1993)).
The level of nitrate or nitrite in the specimen can be quantified by any method known in the art which provides adequate sensitivity and reproducibility. A variety of protocols have also been described for detecting and quantifying nitrite and nitrate levels in biological fluids by ion chromatography (e.g., S A Everett et al., J. Chromatogr. 706, 437 (1995); J M Monaghan et al., J. Chromatogr. 770, 143 (1997)), high-performance liquid chromatography (e.g., M Kelm et al., Cardiovasc. Res. 41, 765 (1999)), and capillary electrophoresis (M A Friedberg et al., J. Chromatogr. 781, 491 (1997)). For example, 2,3-diaminonaphthalene reacts with the nitrosonium cation that forms spontaneously from NO to form the fluorescent product […]. Using 2,3-diaminonaphthalene (“DAN”), researchers have developed a rapid, quantitative fluorometric assay that can detect from 10 nM to 10 μM nitrite and is compatible with a multi-well microplate format. […] DAN reacts with nitrite ion and gives fluorescent […] (M C Carré et al., Analysis 27, 835-838 (1999)). Table 1 provides the test results of various compounds of the subject invention using the DAN assay.
A specimen can be processed prior to determination of nitrate or nitrite as required by the quantification method, or in order to improve the results, or for the convenience of the investigator. For example, processing can involve centrifuging, filtering, or homogenizing the sample. If the sample is whole blood, the blood can be centrifuged to remove cells and the nitrate or nitrite assay performed on the plasma or serum fraction. If the sample is tissue, the tissue can be dispersed or homogenized by any method known in the art prior to determination of nitrate or nitrite. It may be preferable to remove cells and other debris by centrifugation or another method and to determine the nitrate or nitrite level using only the fluid portion of the sample, or the extracellular fluid fraction of the sample. The sample can also be preserved for later determination, for example by freezing of urine or plasma samples. When appropriate, additives may be introduced into the specimen to preserve or improve its characteristics for use in the nitrate or nitrite assay.
The “level” of nitrate, nitrite, or other NO-related product usually refers to the concentration (in moles per liter, micromoles per liter, or other suitable units) of nitrate or nitrite in the specimen, or in the fluid portion of the specimen. However, other units of measure can also be used to express the level of nitrate or nitrite. For example, an absolute amount (in micrograms, milligrams, nanomoles, moles, or other suitable units) can be used, particularly if the amount refers back to a constant amount (e.g., grams, kilograms, milliliters, liters, or other suitable units) of the specimens under consideration. A number of commercially available kits can be used.
For `Cc1cc(C(C)(C)CNCCCc2ccc3c(c2)OCO3)nc(-n2ccnc2)n1` [Example 78, (3-Benzo[1,3]dioxol-5-yl-propyl)-{2-[2-(2H-imidazol-1-yl)-6-methyl-pyrimidin-4-yl]-2-methyl-propyl}-amine hydrochloride], the EC50 (as a rule, the concentration giving half of the maximal effect) is < 1000 nM. With `CN(CCCNCc1ccc2c(c1)OCO2)c1nc(-n2cnc(I)c2)ns1` [Example 81, N′-Benzo[1,3]dioxol-5-ylmethyl-N-[3-(4-iodo-imidazol-1-yl)-[1,2,4]thiadiazol-5-yl]-N-methyl-propane-1,3-diamine] the figure was > 50000 nM; with `COc1ccc(CNCCNC(C)c2cc(C)nc(-n3ccnc3)n2)cc1O` (stereo not drawn) [Example 100, 5-({2-[1-(2-Imidazol-1-yl-6-methyl-pyrimidin-4-yl)-ethylamino]-ethylamino}-methyl)-2-methoxy-phenol], < 50000 nM; with `CN(CCc1ccc2c(c1)OCO2)CCN(C)c1nc(-n2ccnc2)ns1` [Example 128, N-(2-Benzo[1,3]dioxol-5-yl-ethyl)-N′-(3-imidazol-1-yl-[1,2,4]thiadiazol-5-yl)-N,N′-dimethyl-ethane-1,2-diamine], < 1000 nM. With `CN(CCCNCc1ccc2c(c1)OCCO2)c1nc(-n2ccnc2)ns1` [Example 16, N′-(2,3-Dihydro-benzo[1,4]dioxin-6-ylmethyl)-N-(3-imidazol-1-yl-[1,2,4]thiadiazol-5-yl)-N-methyl-propane-1,3-diamine] the figure was < 1000 nM; with `CN(CC(=O)NCCc1ccc2c(c1)OCO2)c1nc(-n2ccnc2)ns1` [Example 30, N-(2-Benzo[1,3]dioxol-5-yl-ethyl)-2-[(3-imidazol-1-yl-[1,2,4]thiadiamol-5-yl)-methyl-amino]-acetamide], < 1000 nM.

With `c1cn(-c2nsc(N3CCN(Cc4ccc5c(c4)OCO5)CC3)n2)cn1` [Example 33, 1-Benzo[1,3]dioxol-5-ylmethyl-4-(3-imidazol-1-yl-[1,2,4]thiadiazo-5-yl)-piperazine], the concentration giving a half-maximal response (EC50) was < 50000 nM. Next, `Cc1cc(C2C(C(=O)NCCc3ccc4c(c3)OCO4)CCN2C)nc(-n2ccnc2)n1` (stereo not drawn) [Example 125, 2-(2-Imidazol-1-yl-6-methyl-pyrimidin-4-yl)-1-methyl-pyrrolidine-3-carboxylic acid (2-benzo[1,3]dioxol-5-yl-ethyl)-amide]: < 1000 nM; `CN(CCCNS(=O)(=O)c1ccc(OC(F)(F)F)cc1)c1nc(-n2ccnc2)ns1` [Example 34, N-{3-[(3-Imidazol-1-yl-[1,2,4]thiadiazol-5-yl)-methyl-amino]-propyl}-4-trifluoromethoxy-benzenesulfonamide]: > 50000 nM; `CNC(=O)C(CCCNCc1ccc2c(c1)OCO2)c1nc(-n2ccnc2)ns1` (stereo not drawn) [Example 40, 5-[(Benzo[1,3]dioxol-5-ylmethyl)-amino]-2-(3-imidazol-1-yl-[1,2,4]thiadiazol-5-yl)-pentanoic acid methylamide]: < 1000 nM. With `Cc1cc(CNC(=O)C2CCCN2Cc2ccccn2)nc(-n2ccnc2)n1` (stereo not drawn) [Example 109, 1-Pyridin-2-ylmethyl-pyrrolidine-2-carboxylic acid (2-imidazol-1-yl-6-methyl-pyrimidin-4-ylmethyl)-amide] the figure was > 50000 nM; with `Cc1cc(CNC(=O)C2CCCN2Cc2ccc(F)c(F)c2)nc(-n2ccnc2)n1` (stereo not drawn) [Example 112, 1-(3,4-Difluoro-benzyl)-pyrrolidine-2-carboxylic acid (2-imidazol-1-yl-6-methyl-pyrimidin-4-ylmethyl)-amide], > 50000 nM; with `Cc1cc(CNC(=O)C2CCCN2Cc2ccco2)nc(-n2ccnc2)n1` (stereo not drawn) [Example 118, 1-Furan-2-ylmethyl-pyrrolidine-2-carboxylic acid (2-imidazol-1-yl-6-methyl-pyrimidin-4-ylmethyl)-amide], > 50000 nM.

On to `Cc1cc(CNC(=O)C2CCCN2Cc2ccc(Cl)cc2)nc(-n2ccnc2)n1` (stereo not drawn) [Example 113, 1-(4-Chloro-benzyl)-pyrrolidine-2-carboxylic acid (2-imidazol-1-yl-6-methyl-pyrimidin-4-ylmethyl)-amide], for which the concentration giving a half-maximal response (EC50) is < 50000 nM. Next, `CN(C)c1ccc(CN(CCCNCc2ccc3c(c2)OCO3)c2nc(-n3ccnc3)ns2)cc1` [Example 105, N-Benzo[1,3]dioxol-5-ylmethyl-N′-(4-dimethylamino-benzyl)-N′-(3-imidazol-1-yl-[1,2,4]thiadiazol-5-yl)-propane-1,3-diamine]: < 1000 nM.

For the molecule `Cc1cc(C2CCCCN2CCN(C)Cc2ccc3c(c2)OCO3)nc(-n2ccnc2)n1` (stereo not drawn) [Example 134], the EC50 is < 1000 nM. With `O=C(NCCc1ccc2c(c1)OCO2)[C@H]1CCCCN1c1nc(-n2ccnc2)ns1` [Example 26, (R)-1-(3-Imidazol-1-yl-[1,2,4]thiadiazol-5-yl)-piperidine-2-carboxylic acid (2-benzo[1,3]dioxol-5-yl-ethyl)-amide] the figure was < 1000 nM.

For `CCOC(=O)CC(NCCNCc1ccc2c(c1)OCO2)c1cc(C)nc(-n2ccnc2)n1` (stereo not drawn) [Example 135, Benzo[1,3]dioxol-5-ylmethyl-{2-[2-ethoxycarbonyl-1-(2-imidazol-1-yl-6-methyl-pyrimidin-4-yl)-ethylamino]-ethyl}-ammonium trifluoroacetate], the EC50 was < 1000 nM. Next, `CC(NCCNCc1ccc2c(c1)OCO2)c1csc(-n2ccnc2)n1` (stereo not drawn) [Example 68, N-Benzo[1,3]dioxol-5-ylmethyl-N′-[1-(2-imidazol-1-yl-thiazol-4-yl)-ethyl]-ethane-1,2-diamine]: < 1000 nM. Consider `CCCN(CCCNCc1ccc2c(c1)OCO2)c1nc(-n2ccnc2)ns1` [Example 31, N′-Benzo[1,3]dioxol-5-ylmethyl-N-(3-imidazol-1-yl-[1,2,4]thiadiazol-5-yl)-N-propyl-propane-1,3-diamine], for which the EC50 is < 1000 nM.

With `Cc1cc(C2CCCN2CCNCc2ccc3c(c2)OCO3)nc(-n2ccnc2)n1` (stereo not drawn) [Example 39, Benzo[1,3]dioxol-5-ylmethyl-{2-[2-(2-imidazol-1-yl-6-methyl-pyrimidin-4-yl)-pyrrolidin-1-yl]-ethyl}-amine], the EC50 is < 1000 nM. With `CN(CCNCCc1ccc2c(c1)OCCO2)c1nc(-n2ccnc2)ns1` [Example 83, N′-[2-(2,3-Dihydro-benzo[1,4]dioxin-6-yl)-ethyl]-N-(3-imidazol-1-yl-[1,2,4]thiadiazol-5-yl)-N-methyl-ethane-1,2-diamine] the figure was < 1000 nM; with `NC(=O)C1CCC(C(=O)NCCc2ccc3c(c2)OCO3)N1c1nc(-n2ccnc2)ns1` (stereo not drawn) [Example 95], < 1000 nM.

With `Cc1cc(C(C)(C)CCCNCc2ccc3c(c2)OCO3)nc(-n2ccnc2)n1` [Example 76, 4-(2-(1H-Imidazol-1-yl)-6-methylpyrimidin-4-yl)-N-(benzo[d][1,3]dioxol-5-ylmethyl)-4-methylpentan-1-amine], the EC50 is < 1000 nM. Next, `CNC(=O)CN(CCCNCc1ccc2c(c1)OCO2)c1nc(-n2ccnc2)ns1` [Example 56, 2-[{3-[(Benzo[1,3]dioxol-5-ylmethyl)-amino]-propyl}-(3-imidazol-1-yl-[1,2,4]thiadiazol-5-yl)-amino]-N-methyl-acetamide]: < 1000 nM. As to `CN(CCCNCc1cc2ccccc2n1C)c1nc(-n2ccnc2)ns1` [Example 19, N-(3-Imidazol-1-yl-[1,2,4]thiadiazol-5-yl)-N-methyl-N′-(1-methyl-1H-indol-2-ylmethyl)-propane-1,3-diamine], the EC50 is > 50000 nM. Next, `CN(CCCN(C)c1nc(-n2ccnc2)ns1)CCc1ccc2c(c1)OCCO2` [Example 86, N-[2-(2,3-Dihydro-benzo[1,4]dioxin-6-yl)-ethyl]-N′-(3-imidazol-1-yl-[1,2,4]thiadiazol-5-yl)-N,N′-dimethyl-propane-1,3-diamine]: < 1000 nM.

Source of the values: US7825256B2, “Inducible nitric oxide synthase dimerization inhibitors” (Kalypsys, Inc., priority 2004, dated 2010).
